Results: patent US12281113B2, “Crystalline forms of a KRas G12C inhibitor” (MIRATI THERAPEUTICS, INC., priority 2020, dated 2025)
Where “and” joins values, the source holds several entries; their conditions need not be identical. Identical values can stand only once.

Tests used:
Assay type in all cases: physicochemical
[1] = 1 month stability of MRTX849 crystalline vs amorphous, HPLC evaluation after accelerated stress conditions
[2] = Comparative thermal stability study of Form A, Form B and amorphous MRTX849 Drug Substance; settings: for change in appearance on storage: two weeks at 60° C., two months at 25° C./60% RH and 40° C./75% RH
Experimental: (§1) 40° C./75% RH and 60° C. in loosely capped, foil-wrapped small glass vials. Data was obtained for up to two weeks for samples stored at 60° C. and up to two months for samples stored at 25° C./60% RH and 40° C./75% RH. In addition, data was generated from photostability study performed on all three lots as a part of the protocol.

[3] = Photostability study (1/2 ICH conditions)
Experimental: as §1

[4] = Dynamic vapor sorption, 5% to 95% RH
Experimental: Vapor Sorption isotherms were obtained using a Surface Measurement System (SMS) DVS Intrinsic moisture sorption analyzer, controlled by DVS Intrinsic Control software. Samples were not dried prior to analysis. Sorption and desorption data were collected over a range of 5%-95% relative humidity (RH) at 10% RH increments under a nitrogen purge. The equilibrium criterion used for analysis was less than 0.0100% weight change in 5 minutes with a maximum equilibration time of 3 hours.
Vapor sorption data were collected on a Surface Measurement System DVS Intrinsic instrument. Samples were not dried prior to analysis. Sorption and desorption data were collected over a range from 5% to 95% RH at 10% RH increments under a nitrogen purge. The equilibrium criterion used for analysis was less than 0.0100% weight change in 5 minutes with a maximum equilibration time of 3 hours.

[5] = Dynamic vapor sorption isotherm, 25° C., 0-90% RH; settings: for weight gain (DVS): sorption
Experimental: (§2) Sorption isotherms of crystalline Form A were obtained using a SMS GVS Intrinsic moisture sorption analyzer, controlled by GVS Intrinsic Control software. The sample temperature was maintained at 25° C. by the instrument controls. The humidity was controlled by mixing streams of dry and wet nitrogen, with a total flow rate of 200 ml/min. The relative humidity was measured by a calibrated Rotronic probe (dynamic range of 1.0-100% RH), located near the sample. The weight change (mass relaxation) of the sample as a function of % RH was constantly monitored by a microbalance (accuracy ±0.005 mg).
(§3) The sample was loaded and unloaded at 40% RH and 25° C. (typical room conditions). A moisture sorption isotherm was performed as outlined below (2 scans per complete cycle). The standard isotherm was performed at 25° C. at 10% RH intervals over a 0-90% RH range. A double cycle (4 scans) was carried out. Data analysis was carried out within Microsoft Excel using the DVS Analysis Suite.
as §2, with “B” for “A”, “DVS” for “GVS”, “change,” for “change”
as §3, with “Briefly, a sample of crystalline Form B was placed in a tared mesh stainless steel basket under ambient conditions. The sample” for “The sample”

[6] = 0.5 × ICH: Vis Stress at 600 klux-hrs, UV Stress at 100 W-hr/m^2

Row | Appearance ([2]; 1 Month 25° C./60% RH) | Total impurities ([2]; 1 Month 25° C./60% RH) [%] | Appearance ([2]; 1 Month 40° C./75% RH) | Total impurities ([2]; 1 Month 40° C./75% RH) [%] | Appearance ([2]; 1 Week 60° C.) | Total impurities ([2]; 1 Week 60° C.) [%] | Appearance ([2]; 2 Months 25° C./60% RH) | Total impurities ([2]; 2 Months 25° C./60% RH) [%] | Appearance ([2]; 2 Months 40° C./75% RH) | Total impurities ([2]; 2 Months 40° C./75% RH) | Appearance ([2]; 2 Weeks 40° C./75% RH) | Total impurities ([2]; 2 Weeks 40° C./75% RH) [%] | Appearance ([2]; 2 Weeks 60° C.) | Total impurities ([2]; 2 Weeks 60° C.) | Appearance ([2]; Initial T(0)) | Purity [3, 6] | Purity ([3]; Control) | Purity ([3]; T(0)) | weight gain (DVS) ([5]; at 90% RH) [%] | change in appearance on storage [2] | SMILES | also measured
1 |  |  |  |  |  |  |  |  |  |  |  |  |  |  |  |  |  |  |  |  | C=C(F)C(=O)N1CCN(c2nc(OC[C@@H]3CCCN3C)nc3c2CCN(c2cccc4cccc(Cl)c24)C3)C[C@@H]1CC#N [API standard] | Total impurities (%) ([1]; API standard): 0.71%
2 | Tan Solid | 1.42 | Tan Solid | 2.36 | Brown Solid | 5.93 | Tan Solid | 1.86 | Light Brown | 5.73% | Tan Solid | 1.95 | Brown Solid | 9.89% | Tan Solid | 91.25 | 98.42 | 98.59 |  |  | C=C(F)C(=O)N1CCN(c2nc(OC[C@@H]3CCCN3C)nc3c2CCN(c2cccc4cccc(Cl)c24)C3)C[C@@H]1CC#N [Amorphous, 2-[(2S)-4-[7-(8-chloro-1-naphthyl)-2-[[(2S)-1-methylpyrrolidin-2-yl]methoxy]-6,8-dihydro-5H-pyrido[3,4-d]pyrimidin-4-yl]-1-(2-fluoroprop-2-enoyl)piperazin-2-yl]acetonitrile] | Total impurities (%) ([1]; 25° C./60% RH, 1 month): 2.21%; Total impurities (%) ([1]; 40° C./75% RH, 1 month, open): 2.98%; Total impurities (%) ([1]; 40° C./75% RH, 1 month, listed as MRTX849 amorphous): 3.28%; Total impurities ([2]; 2 Months 40° C./75% RH, listed as amorphous material): 5.7%; Total impurities ([2]; 2 Weeks 60° C., listed as amorphous material): 9.9%; Color change on storage ([2]; 60° C. condition and after two months at 40° C./75% RH): changed from tan to brown/light brown; Total impurities ([2]; Initial T(0), listed as amorphous material): 1.4%
3 | Off-white | 0.98 | Off-white | 1.04 | Off-white | 1.27 | Off-white | 1.06 | Off-white | 1.2% and 1.16% | Off-white | 1.07 | Off-white | 1.4% and 1.43% | Off-white | 96.74 | 98.91 | 98.86 | 0.6 | no change in appearance | C=C(F)C(=O)N1CCN(c2nc(OC[C@@H]3CCCN3C)nc3c2CCN(c2cccc4cccc(Cl)c24)C3)C[C@@H]1CC#N [Form A, 2-[(2S)-4-[7-(8-chloro-1-naphthyl)-2-[[(2S)-1-methylpyrrolidin-2-yl]methoxy]-6,8-dihydro-5H-pyrido[3,4-d]pyrimidin-4-yl]-1-(2-fluoroprop-2-enoyl)piperazin-2-yl]acetonitrile Form A] | observed weight gain (DVS) ([4]; from 5% to 90% RH): 0.4%; weight gain (DVS) ([5]; at 40% RH): about 0.1%
4 | Creamy | 0.23 | Creamy | 0.35 | Creamy | 0.31 | Creamy |  | Creamy | 0.4% and 0.44% | Creamy | 0.37 | Creamy | 0.4% | Creamy | 98.41 | 99.74 | 99.75 | 2.5 | no change in appearance | C=C(F)C(=O)N1CCN(c2nc(OC[C@@H]3CCCN3C)nc3c2CCN(c2cccc4cccc(Cl)c24)C3)C[C@@H]1CC#N [Form B, 2-[(2S)-4-[7-(8-chloro-1-naphthyl)-2-[[(2S)-1-methylpyrrolidin-2-yl]methoxy]-6,8-dihydro-5H-pyrido[3,4-d]pyrimidin-4-yl]-1-(2-fluoroprop-2-enoyl)piperazin-2-yl]acetonitrile Form B] | water corresponding to DVS weight gain ([4]; 5% to 95% RH): 1.3 mol water; weight gain (DVS) ([4]; between 5% and 55% RH): 0.2 wt %; weight gain increase (DVS) ([4]; between 55% and 95% RH): 3.5%; weight change (DVS) on desorption ([5]; at 50% RH after desorption from 70% RH): 0.4%; weight gain (DVS) ([5]; at 60% RH): about 0.6%; weight change (DVS) on desorption ([5]; at 70% RH after desorption from 90% RH): 2.2%; weight gain (DVS) ([5]; at 70% RH): 2.9%; Total impurities ([2]; Initial T(0)): 0.3%
5 |  |  |  |  |  |  |  |  |  |  |  |  |  |  |  |  |  |  |  |  | C=C(F)C(=O)N1CCN(c2nc(OC[C@@H]3CCCN3C)nc3c2CCN(c2cccc4cccc(Cl)c24)C3)C[C@@H]1CC#N [Form E, 2-[(2S)-4-[7-(8-chloro-1-naphthyl)-2-[[(2S)-1-methylpyrrolidin-2-yl]methoxy]-6,8-dihydro-5H-pyrido[3,4-d]pyrimidin-4-yl]-1-(2-fluoroprop-2-enoyl)piperazin-2-yl]acetonitrile Form E] | gradual weight gain (DVS) ([4]; between 5% to 96% RH): 1.2%
6 |  |  |  |  |  |  |  |  |  |  |  |  |  |  |  |  |  |  |  |  | C=C(F)C(=O)N1CCN(c2nc(OC[C@@H]3CCCN3C)nc3c2CCN(c2cccc4cccc(Cl)c24)C3)C[C@@H]1CC#N [MRTX849 crystalline, 2-[(2S)-4-[7-(8-chloro-1-naphthyl)-2-[[(2S)-1-methylpyrrolidin-2-yl]methoxy]-6,8-dihydro-5H-pyrido[3,4-d]pyrimidin-4-yl]-1-(2-fluoroprop-2-enoyl)piperazin-2-yl]acetonitrile] | Total impurities (%) ([1]; 40° C./75% RH, 1 month): 0.77%
